# Tests used:
# [1] = system: cholesterol absorption; test: Acute in vivo cholesterol absorption model: inhibition of 14C-cholesterol absorption into plasma, intestinally cannulated rats; set-up: species or system Male Sprague-Dawley rats; conditions: rat, relative to bile vehicle control
# Description: Male Sprague-Dawley rats weighing 300-400 g were used. After an overnight fast, rats were anesthetized (Inactin, […] i.p.) for the duration of each study and were fitted with a cannula into the small intestine just below the pyloric valve. For the cannulation of the small intestine, a catheter (Surflo® i.v. catheter (18GX2″), Terumo Medical Corporation; Elkton, Md.) was inserted through the fundus of the stomach, advanced 1 cm beyond the pylorus, and ligated in place. Compounds were mixed in rat bile and delivered by bolus injection (1 mL) via the intestinal catheter into the small intestine.
# One hour after the bile doses were delivered, three mL of an emulsion consisting of 2.23 mg/mL L-phosphatidylcholine and 11.8 mg/mL triolein in 19 mM sodium taurocholate (Sigma; St. Louis, Mo.) buffer (pH 6.4) containing 3 mg cholesterol and 1 mCi ^14C-cholesterol (NEN; Boston, Mass.) was delivered to each rat as a bolus via the intestinal cannula. Ninety minutes after the cholesterol emulsion was delivered, the rats were euthanized. Blood was collected and plasma was separated by centrifugation at 2000 rpm for 15 min at 4° C. Triplicate aliquots of plasma were analyzed ^14C radioactivity and inhibition of cholesterol absorption relative to bile vehicle control rats was determined.
# [2] = target: T1, Scavenger receptor, class B, type I (SR-BI) (Rattus norvegicus, UniProt P97943); test: Expression cloning of rat intestinal epithelial cDNA library in BW5147 cells, stained with fluorescent compound, FACS; format: cell-based; conditions: two clones from two independent cDNA expression libraries, FACS-positive BW5147 cells
# T1 construct: expressed in transfected cells; host or cells: mouse cell line BW5147, infected with pMX retrovirus packaged in BOSC23
# T1 sequence (P97943 1-509): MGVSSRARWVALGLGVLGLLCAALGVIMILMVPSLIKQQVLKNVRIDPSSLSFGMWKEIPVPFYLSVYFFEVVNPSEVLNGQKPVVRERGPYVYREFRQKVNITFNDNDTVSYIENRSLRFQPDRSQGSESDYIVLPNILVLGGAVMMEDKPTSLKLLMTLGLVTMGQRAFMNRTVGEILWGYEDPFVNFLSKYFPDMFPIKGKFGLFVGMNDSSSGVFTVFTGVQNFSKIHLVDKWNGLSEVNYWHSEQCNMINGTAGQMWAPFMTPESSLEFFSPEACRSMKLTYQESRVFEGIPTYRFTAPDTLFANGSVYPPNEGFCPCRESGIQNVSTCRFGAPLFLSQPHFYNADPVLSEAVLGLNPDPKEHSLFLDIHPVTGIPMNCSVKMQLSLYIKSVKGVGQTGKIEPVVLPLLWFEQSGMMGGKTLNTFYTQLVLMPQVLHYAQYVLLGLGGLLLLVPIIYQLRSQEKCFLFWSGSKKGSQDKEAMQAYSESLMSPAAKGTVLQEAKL
# Text: The small intestine was removed from male CRL: CD BR rats. Intestinal epithelial cells were isolated by the method of Weiser (Weiser, M., 1973, JBC 248, 2536-2541) and the mRNA extracted. Poly A mRNA was purified and double stranded cDNA synthesized. Adapter linkers were ligated followed by size selection (>2 Kb) of the cDNA. The selected fraction of cDNA was ligated into the retroviral expression plasmid pMX, subsequently transformed into bacteria and grown on selective agar at a clonal density of −30,000/plate. Each pool of bacterial clones was collected and plasmid DNA prepared.
# Individual pools of cDNA library were transformed into the retroviral packaging cell line BOSC23 and the resulting viral particles, containing the cDNA library, were used to infect the mouse cell line BW5147. Following infection BW5147 cells were stained with compound 1C and analyzed by fluorescent activated cell sorting (FACS). Positive staining cells (−01%) were recovered and re-cultured. The process of recovering positive staining cells was repeated after expansion of the cell population in culture and following the second round of FACS analysis individual cells were isolated by limiting dilution.
# Individual clonal populations of cells were subjected to PCR using retroviral vector specific oligonucleotide primers designed to flank the multiple cloning site in which the cDNA library was cloned. […]
cellular receptor identified by expression cloning with the fluorescent compound [2],Molecule,% Inhibition of [14C]-Cholesterol Absorption into Plasma ([1]; dose 56 μg/kg in rat bile via intestinal catheter) [%],% Inhibition of [14C]-Cholesterol Absorption into Plasma ([1]; dose 186 μg/kg in rat bile via intestinal catheter) [%],% Inhibition of [14C]-Cholesterol Absorption into Plasma ([1]; dose 30 μg/kg in rat bile via intestinal catheter) [%],% Inhibition of [14C]-Cholesterol Absorption into Plasma ([1]; dose 100 μg/kg in rat bile via intestinal catheter) [%]
–,O=C(CCCCCNC(=O)c1ccc(-c2c3ccc(=O)cc-3oc3cc(O)ccc23)c(C(=O)O)c1)NCC#Cc1ccc(N2C(=O)[C@H](CC[C@H](O)c3ccc(F)cc3)[C@H]2c2ccc(O[C@@H]3O[C@H](C(=O)O)[C@@H](O)[C@H](O)[C@H]3O)cc2)cc1 [IB],79,88,–,–
identified as the cellular receptor,"[1-O-[4-[1-[4-[3-[[3-[2-[(3,5-DIMETHYL-1H-PYRROL-2-YL-.KAPPA.N)METHYLENE]-2H-PYRROL-5-YL-.KAPPA.N]-1-OXOPROPYL]AMINO]-1-PROPYNYL]PHENYL]-3(R)-[3(S)-HYDROXY-3-(4-FLUOROPHENYL)PROPYL]-2-OXO-4(S)-AZETIDINYL]PHENYL]-BETA-D-GLUCURONATO]DIFLUOROBORATE, HYDROGEN [IC]",–,–,58,80
